Experimental data published in PubChem BioAssay (NCI).
Values joined by “and” are separate entries in the source; they are usually repeats but may differ in a detail not shown here. Identical values can stand only once.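 How tested: cells in 96-well plates exposed to compound for 48 hours at five concentrations. GI50 marks 50% less growth. TGI denotes the concentration required for complete inhibition of growth.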

How the values were obtained:
Experiment in all cases: NCI tumour cell line growth inhibition, 48 h
[1] = tested on: HT29 colon
[2] = tested on: COLO 205 colon
[3] = tested on: OVCAR-8 ovarian
[4] = tested on: UACC-62 melanoma
[5] = tested on: MALME-3M melanoma
[6] = tested on: OVCAR-4 ovarian
[7] = tested on: BT-549 breast
[8] = tested on: HCC-2998 colon
[9] = tested on: EKVX NSCLC
[10] = tested on: NCI/ADR-RES ovarian

COc1ccc(/C(C)=C(\c2ccc(Cl)cc2)c2ccc(OCCN3CCCCCC3)cc2)cc1F
GI50 [1]: 611 nM
TGI [1]: > 16700 nM
GI50 [2]: 1620 nM
TGI [2]: 7470 nM
GI50 [3]: 5090 nM
TGI [3]: > 16700 nM
GI50 [4]: 3520 nM
TGI [4]: 8020 nM
GI50 [5]: 2250 nM
TGI [5]: 4720 nM
GI50 [6]: 2630 nM
TGI [6]: 8090 nM
GI50 [7]: 2790 nM
TGI [7]: 6740 nM
GI50 [8]: 3810 nM
TGI [8]: 9380 nM
GI50 [9]: 5540 nM
TGI [9]: > 16700 nM
GI50 [10]: 4000 nM
TGI [10]: 12400 nM

O=C(OC[C@@H]1CO1)c1cccc2c(=O)c3ccccc3[nH]c12
GI50 [1]: 311 nM
TGI [1]: 3170 nM
GI50 [2]: 246 nM
TGI [2]: 1410 nM
GI50 [3]: 166 nM
TGI [3]: 2780 nM
GI50 [4]: 229 nM
TGI [4]: 560 nM
GI50 [5]: 472 nM
TGI [5]: 1760 nM
GI50 [6]: 671 nM
TGI [6]: 4720 nM
GI50 [7]: 338 nM
TGI [7]: 2860 nM
GI50 [8]: 312 nM
TGI [8]: 1250 nM
GI50 [9]: 856 nM
TGI [9]: 3720 nM
GI50 [10]: 253 nM
TGI [10]: 2080 nM

CC1(C)CC[C@]2(C(=O)O)CC[C@]3(C)C(=CC[C@@H]4[C@@]5(C)C/C(=C/c6ccco6)C(=O)C(C)(C)[C@@H]5CC[C@]43C)[C@@H]2C1
GI50 [1]: 3140 nM
TGI [1]: 14100 nM
GI50 [2]: 2020 nM
TGI [2]: 3890 nM
GI50 [3]: 4290 nM
TGI [3]: > 100000 nM
GI50 [4]: 3060 nM
TGI [4]: 12800 nM
GI50 [5]: 3990 nM
TGI [5]: 16600 nM
GI50 [6]: 3760 nM
TGI [6]: 41100 nM
GI50 [7]: 4010 nM
TGI [7]: 23400 nM
GI50 [8]: 3150 nM
TGI [8]: 12200 nM
GI50 [9]: 3620 nM
TGI [9]: 31100 nM
GI50 [10]: 3640 nM
TGI [10]: 44500 nM

COc1cccc(C2C(C#N)=C(N)Oc3cc4c(cc32)OCO4)c1 (stereo unspecified)
GI50 [1]: 41.7 nM
TGI [1]: 2420 nM
GI50 [2]: 49.2 nM
TGI [2]: 325 nM
GI50 [3]: 95.6 nM
TGI [3]: > 36200 nM
GI50 [4]: 50.5 nM
TGI [4]: > 53800 nM
GI50 [5]: 50.1 nM
TGI [5]: 31400 nM
GI50 [6]: 457 nM
TGI [6]: > 100000 nM
GI50 [7]: 87.4 nM
TGI [7]: 5000 nM
GI50 [8]: 81.3 nM
TGI [8]: 2520 nM
GI50 [9]: 280 nM
TGI [9]: 58800 nM
GI50 [10]: 29.9 nM
TGI [10]: 151 nM

Cc1ccnc(Nc2ccc([N+](=O)[O-])c(NCCN3CCOCC3)n2)c1
GI50 [1]: 4.38 nM
TGI [1]: 18300 nM
GI50 [2]: 5.02 nM
TGI [2]: 41.7 nM and 33.3 nM
GI50 [3]: 33.4 nM and 20.1 nM
TGI [3]: > 100000 nM
GI50 [4]: 3.82 nM
TGI [4]: 18300 nM
GI50 [5]: 6.17 nM
GI50 [6]: 15.1 nM
GI50 [7]: 20.8 nM and 19.1 nM
TGI [7]: 23400 nM
GI50 [8]: 18.7 nM and 17.1 nM
TGI [8]: 14700 nM
GI50 [9]: 29.2 nM
GI50 [10]: 4.29 nM
